Source: US4505916A, “Method for the treatment of psychoneurotic states by administration of derivatives of 2-(4-piperidyl)-1-(4-quinolyl)-ethanone” (Pharmindustrie, priority 1979, dated 1985)

Experiments:
[1] = molecular target: cerebral receiving sites of the benzodiazepines; assay: Displacement of tritiated Diazepam from its binding site (method of MOHLER et al.); set-up: species or system rat; conditions: displacement of tritiated Diazepam (3H Diazepam) from its binding site
Description: The medicaments of the class of benzodiazepines are used as anticonvulsivants, as hypnotics and for the treatment of states of anxiety and of various psychoneurotic states for treatment of warm blooded mammals. The presence of specific receptors of the benzodiazepines in the membranes of the rat's brain has been shown [SQUIRES et al., Nature, 266, (1977), 732] and the degree of affinity of the benzodiazepines for these receptors, which is measured by their aptitude for displacing the tritiated Diazepam from its binding sites, is in good correlation with the pharmacodynamic effects observed on the animal and on man.
I--AFFINITY FOR THE CEREBRAL RECEIVING SITES OF THE BENZODIAZEPINES
The products have been tested according to the method of MOHLER et al, Life Science, 1977, 20, 2101, which is relied on herein.

[2] = system: ventricular arhythmia caused by aconitine; assay: Aconitine test on the rat (antiarhythmic activity); assay type: in vivo; conditions: iv
Description: The antiarhythmic activity of the compounds of the present invention has been shown with the help of the aconitine test on the rat.
The principle of the technique rests on the induction time of the ventricular arhythmia caused by aconitine which slowly perfused in rats. An antiarhythmic substance retards the appearance of the arhythmia and the delay is proportional to the activity of the molecule.
Groups of 5 male rats are used. An individual anaesthesia is carried out (10% urethane: 1 g/kg/ip) to permit a catheterisation of the vein of the penis. The electrocardiogram is recorded. At the time T=0 the substance studied is injected in the form of an aqueous solution, at the rate of 2.5 ml of solution per kg in 30 seconds. At the time T=90 seconds, that is 1 minute after the end of the injection, the aconitine is perfused at the rate of 20 μg per minute until the appearance of supraventricular extra systoles. The time of perfusion of the aconitine is noted.
The results are expressed by an ED50 which is the dose in mg/kg increasing by 50% the time of perfusion of the aconitine in comparison with the perfusion time of aconitine for the control animals.

[3] = molecular target: cerebral receiving sites of the benzodiazepines; conditions: 3H Diazepam; constant used in the formula for Ki; read-out: KD, constant of affinity; cited from earlier work

| Structure (SMILES) | Ki [1] | ED50 [2] | Kd [3] |
| --- | --- | --- | --- |
| C=C[C@H]1CNCC[C@H]1CC(=O)c1ccnc2ccc(OC)cc12 [Example 3, 2-[3(R)-ethenyl-4(S)-piperidyl]-1-(6-methoxy-4-quinolyl)-ethanone] | 16000 nM | – | – |
| O=C(CC1CCNCC1)c1cc(-c2ccccc2)nc2ccccc12 [Example 5, 1-(2-phenyl-4-quinolyl)-2-(4-piperidyl)-ethanone] | 500 nM | – | – |
| O=C(CC1CCNCC1)c1cc(-c2ccc(F)cc2)nc2ccccc12 [Example 6, 1-[2-(4-fluoro-phenyl)-4-quinolyl]-2-(4-piperidyl)-ethanone] | 8000 nM | – | – |
| O=C(CC1CCNCC1)c1cc(-c2ccc(Cl)cc2)nc2ccccc12 [Example 7, 1-[2-(4-CHLORO-PHENYL)-4-QUINOLYL]-2-(4-PIPERIDYL)-ETHANONE] | 4500 nM | – | – |
| Cc1ccc(-c2cc(C(=O)CC3CCNCC3)c3ccccc3n2)cc1 [Example 8, 1-[2-(4-METHYL-PHENYL)-4-QUINOLYL]-2-(4-PIPERIDYL)-ETHANONE] | 1600 nM | – | – |
| COc1ccc(-c2cc(C(=O)CC3CCNCC3)c3ccccc3n2)cc1 [Example 9, 1-[2-(4-methoxy-phenyl)-4-quinolyl]-2-(4-piperidyl)ethanone] | 5000 nM | – | – |
| C=C[C@H]1CNCC[C@H]1CC(=O)c1cc(-c2ccccc2)nc2ccccc12 [Example 11, 2-[3(R)-ethenyl-4(S)-piperidyl]-1-(2-phenyl-4-quinolyl)ethanone] | 2000 nM | – | – |
| COc1ccc2nccc(CCC3CCNCC3)c2c1 [Example 13, 6-METHOXY-4-[2-(4-PIPERIDYL)-ETHYL]-QUINOLINE] | 7000 nM | – | – |
| C=C[C@H]1CNCC[C@H]1CCc1ccnc2ccc(OC)cc12 [Example 14, 6-METHOXY-4-{2-[3(R)-ETHENYL-4(R)-PIPERIDYL]-ETHYL}-QUINOLINE] | 5000 nM | 5 mg/kg | – |
| c1ccc(-c2cc(CCC3CCNCC3)c3ccccc3n2)cc1 [Example 16, 2-phenyl-4-[2-(4-piperidyl)-ethyl]-quinoline] | 200 nM | 1.3 mg/kg | – |
| Clc1ccc(-c2cc(CCC3CCNCC3)c3ccccc3n2)cc1 [Example 17, 2-(4-chloro-phenyl)-4-[2-(4-piperidyl)-ethyl]-quinoline] | 400 nM | – | – |
| COc1ccc(-c2cc(CCC3CCNCC3)c3ccccc3n2)cc1 [Example 18, 2-(4-METHOXY-PHENYL)-4-[2-(4-PIPERIDYL)-ETHYL]-QUINOLINE] | 1300 nM | – | – |
| Cc1ccc(-c2cc(CCC3CCNCC3)c3ccccc3n2)cc1 [Example 19, 2-(4-METHYL-PHENYL)-4-[2-(4-PIPERIDYL)-ETHYL]-QUINOLINE] | 600 nM | – | – |
| c1ccc(CCN2CCC(CCc3cc(-c4ccccc4)nc4ccccc34)CC2)cc1 [Example 22, 4-{2-[1-(2-phenyl-ethyl)-4-piperidyl]-ethyl}-2-phenyl-quinoline] | 500 nM | – | – |
| CN1CCC(CCc2cc(-c3ccccc3)nc3ccccc23)CC1 [Example 23, 4-[2-(1-METHYL-4-PIPERIDYL)-ETHYL]-2-PHENYL-QUINOLINE] | 100 nM | – | – |
| c1ccc2c(CCC3CCNCC3)ccnc2c1 [Example 24, 4-[2-(4-piperidyl)-ethyl]-quinoline] | 13000 nM | – | – |
| COc1ccc2nc(-c3ccccc3)cc(CCC3CCNCC3)c2c1 [Example 25, 6-methoxy-2-phenyl-4-[2-(4-piperidyl)-ethyl]-quinoline] | 11000 nM | – | – |
| C=C[C@@H]1CNCC[C@H]1CCc1ccnc2ccc(OC)cc12 [Example 26, 6-methoxy-4-{2-[3(S)-ethenyl-4(R)-piperidyl]-ethyl}-quinoline] | – | 2.6 mg/kg | – |
| CN1C(=O)CN=C(c2ccccc2)c2cc(Cl)ccc21 [^3 H Diazepam] | – | – | 2.74 nM |
